Calls of active or inactive are those of the source.
Assays:
[1] = target: T1, Calpain-2 catalytic subunit (Sus scrofa, UniProt P43367); assay: m-calpain protease blockers, concentration series – biochemical, fluorogenic peptide substrate, dose response (AID 1420); type: functional
T1 sequence (P43367 whole entry): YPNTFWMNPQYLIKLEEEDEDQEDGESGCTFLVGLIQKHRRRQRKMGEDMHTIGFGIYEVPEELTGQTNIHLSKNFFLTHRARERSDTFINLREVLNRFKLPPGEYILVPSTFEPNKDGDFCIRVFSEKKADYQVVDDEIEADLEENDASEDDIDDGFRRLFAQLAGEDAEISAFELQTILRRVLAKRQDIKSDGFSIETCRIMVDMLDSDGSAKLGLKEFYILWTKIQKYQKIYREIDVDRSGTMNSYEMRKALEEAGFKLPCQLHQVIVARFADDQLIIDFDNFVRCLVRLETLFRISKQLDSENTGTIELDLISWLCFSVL

[2] = target: T2, Corticotropin-releasing factor receptor 2/Corticotropin-releasing factor-binding protein (Homo sapiens, UniProt P24387+Q13324); assay: activators of CRF receptor 2 with binding protein – uHTS hits, confirmation (AID 602473); type: functional; conditions: read-out: EC50_Mean
T2 sequence (Q13324 whole entry): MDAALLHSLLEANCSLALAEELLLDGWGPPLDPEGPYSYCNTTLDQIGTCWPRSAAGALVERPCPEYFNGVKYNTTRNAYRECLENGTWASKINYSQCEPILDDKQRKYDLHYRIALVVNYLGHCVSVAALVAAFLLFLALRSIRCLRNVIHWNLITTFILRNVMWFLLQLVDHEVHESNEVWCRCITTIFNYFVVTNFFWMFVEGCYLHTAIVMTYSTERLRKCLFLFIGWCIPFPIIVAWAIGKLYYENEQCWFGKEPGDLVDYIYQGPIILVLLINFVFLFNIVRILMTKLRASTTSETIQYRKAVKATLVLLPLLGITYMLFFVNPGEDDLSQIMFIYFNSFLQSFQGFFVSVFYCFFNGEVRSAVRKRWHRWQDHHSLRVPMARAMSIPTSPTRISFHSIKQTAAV
T2 sequence (P24387 whole entry): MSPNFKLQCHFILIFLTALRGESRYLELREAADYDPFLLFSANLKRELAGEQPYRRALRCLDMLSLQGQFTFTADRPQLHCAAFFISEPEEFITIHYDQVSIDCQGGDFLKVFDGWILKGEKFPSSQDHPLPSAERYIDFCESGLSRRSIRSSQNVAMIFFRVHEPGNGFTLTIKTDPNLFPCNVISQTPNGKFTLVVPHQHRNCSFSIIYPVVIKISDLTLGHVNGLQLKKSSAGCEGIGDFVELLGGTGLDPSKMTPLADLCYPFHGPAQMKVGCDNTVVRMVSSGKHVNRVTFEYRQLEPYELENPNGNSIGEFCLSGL

[3] = target: T2, Corticotropin-releasing factor receptor 2/Corticotropin-releasing factor-binding protein; assay: Dose Response confirmation of uHTS hits for small molecule antagonists of the CRF-binding protein and CRF-R2 receptor complex.; type: functional; conditions: read-out: IC50_Mean
[4] = tested on: H9c2; assay: cells; type: functional, cell-based; conditions: Rattus norvegicus, H9c2, Myocardium;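 note: confirmatory concentration-response retest of ultra-high-throughput screening hits for modulation of myocardial damage; cell death induced by hydrogen peroxide oxidative stress; compound pretreatment for 60 min then peroxide exposure for 2 h; potency is for protecting the cells against peroxide damage rather than for killing them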
[5] = target: T3, Zinc finger protein mex-5 (Caenorhabditis elegans, UniProt Q9XUB2); assay: potency of MEX-5 RNA-binding blockers – biochemical, C. elegans, fluorescence polarization, dose response (AID 1960)
T3 sequence (Q9XUB2 whole entry): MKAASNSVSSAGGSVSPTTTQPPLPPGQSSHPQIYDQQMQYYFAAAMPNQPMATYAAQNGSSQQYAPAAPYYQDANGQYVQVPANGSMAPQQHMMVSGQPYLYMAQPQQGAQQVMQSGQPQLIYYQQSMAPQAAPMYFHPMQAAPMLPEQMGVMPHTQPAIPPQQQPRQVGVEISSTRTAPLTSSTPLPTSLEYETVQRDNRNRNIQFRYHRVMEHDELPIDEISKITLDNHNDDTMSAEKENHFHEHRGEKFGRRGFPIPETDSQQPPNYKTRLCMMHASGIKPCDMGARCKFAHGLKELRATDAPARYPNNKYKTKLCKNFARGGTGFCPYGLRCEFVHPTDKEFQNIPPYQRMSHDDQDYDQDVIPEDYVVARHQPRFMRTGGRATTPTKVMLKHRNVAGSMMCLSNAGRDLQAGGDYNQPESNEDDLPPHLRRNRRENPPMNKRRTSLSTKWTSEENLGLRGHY

[6] = target: T4, RNA-binding protein pos-1 (Caenorhabditis elegans, UniProt G5EF15); assay: disruptors of C. elegans POS-1 RNA interaction – biochemical, fluorescence polarization, dose response (AID 1964);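 note: purified POS-1 fused to maltose binding protein made in E. coli; potency of compounds blocking POS-1 binding to fluorescent RNA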
T4 sequence (G5EF15 whole entry): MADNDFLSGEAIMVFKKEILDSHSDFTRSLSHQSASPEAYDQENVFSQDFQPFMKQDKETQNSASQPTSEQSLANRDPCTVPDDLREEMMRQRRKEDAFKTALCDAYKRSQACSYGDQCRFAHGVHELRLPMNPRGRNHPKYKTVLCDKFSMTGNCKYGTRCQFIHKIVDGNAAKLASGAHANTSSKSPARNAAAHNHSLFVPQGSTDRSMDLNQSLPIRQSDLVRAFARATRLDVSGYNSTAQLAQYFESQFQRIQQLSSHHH

[7] = Luminescence Cell-Based Dose Response HTS to Identify Activators of Luciferase Translation or Activity in H4 […] Cells. [Related pubchem assays: 1829 (Project Summary), 1814 (Primary HTS)]; type: functional
[8] = tested on: H4; assay: Luminescence Cell-Based Dose Response HTS to Identify Activators of 5'UTR Stem-Loop Driven Prion Protein mRNA Translation in H4 Neuroglioblastoma Cells. [Related pubchem assays: 1829 (Project Summary), 1814 (Primary HTS)]; type: functional; conditions: Homo sapiens
[9] = Luminescence Cell-Based Dose Confirmation HTS to Identify Activators of 5'UTR Stem-Loop Driven Alpha-Synuclein mRNA Translation in H4 Neuroglioblastoma Cells. [Related pubchem assays: 1829 (Project Summary), 1814 (Primary HTS)]; type: functional
[10] = target: Cytochrome P450 2C9 (Homo sapiens, UniProt P11712)
Chain of Cytochrome P450 2C9 (P11712 whole entry): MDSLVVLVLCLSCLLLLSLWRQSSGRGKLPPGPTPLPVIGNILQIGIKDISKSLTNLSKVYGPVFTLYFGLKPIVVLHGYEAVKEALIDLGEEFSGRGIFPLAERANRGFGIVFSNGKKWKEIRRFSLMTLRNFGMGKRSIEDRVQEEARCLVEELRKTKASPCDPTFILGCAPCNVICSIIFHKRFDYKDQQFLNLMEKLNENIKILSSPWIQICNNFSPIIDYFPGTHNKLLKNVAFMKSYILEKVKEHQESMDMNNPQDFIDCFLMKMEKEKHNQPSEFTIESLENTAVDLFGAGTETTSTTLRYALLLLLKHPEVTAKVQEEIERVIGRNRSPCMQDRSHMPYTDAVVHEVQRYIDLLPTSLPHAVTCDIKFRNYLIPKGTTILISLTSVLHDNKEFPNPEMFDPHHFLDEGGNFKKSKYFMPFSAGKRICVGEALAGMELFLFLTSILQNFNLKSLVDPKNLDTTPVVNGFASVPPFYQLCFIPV

SMILES | EC50 [2] | IC50 [3] | further results
O=C(CSc1ccc2nnc(-c3ccncc3)n2n1)Nc1nccs1 | – | – | IC50 [1]: > 50 µM (not active)
CC1CCN(Cc2cnc(Cl)s2)CC1 | – | – | IC50 [1]: 1.78 µM (not active)
C=CCOc1c(CNc2cccc(C(=O)O)c2)cccc1OCC | > 53 µM (inactive) | > 47.1 µM (inactive) | –
CC1(C)Cc2c(C#N)c(NCC3CCCO3)nc(-c3ccco3)c2CO1 (stereo not given) | > 53 µM (inactive) | > 47.1 µM (inactive) | –
COCCn1c(SCc2nnc(-c3ccccc3)o2)nc2sc3c(c2c1=O)CCC3 | > 53 µM (inactive) | > 47.1 µM (inactive) | –
COc1cc(C#Cc2c(-c3ccccc3)n(C)c3ccccc23)cc(OC)c1 | > 53 µM (inactive) | > 47.1 µM (inactive) | –
COc1cccc(CN(C)C(=O)C(Cc2ccccc2)NC(=O)c2ccccc2)c1OC (stereo not given) | – | – | IC50 [4]: 6.93 µM (active)
O=C(NC1CCCCC1)C(c1ccc2ncccc2c1)N(Cc1cccs1)C(=O)c1cccs1 (stereo not given) | – | – | IC50 [4]: > 79 µM (inactive)
CCCCN1C(=O)NC(=O)/C(=C\NNC(=O)c2ccncc2)C1=O | – | – | EC50 [5]: > 300 µM (not active); EC50 [6]: > 300 µM (not active)
COC(=O)/C=C1/SC(NNC(=O)c2ccc(Cl)cc2Cl)=NC1=O | > 53 µM (inactive) | > 47.1 µM (inactive) | –
O=C(COc1ccccc1C(=O)c1cnn(-c2ccccc2)c1)Nc1ccc2ccccc2c1 | > 53 µM (inactive) | > 47.1 µM (inactive) | EC50 [7]: 6.97 µM (active); EC50 [8]: 7.44 µM (active); EC50 [9]: 5.67 µM (active)
CC(C)CC(=O)Nc1ccc(C(=O)COC(=O)Cc2nnc(O)c3ccccc23)cc1 | – | – | IC50 [4]: 18.4 µM (active)
CC(C)CCNC(=O)NC(=O)CSc1nnc(-c2ccccc2Br)o1 | – | – | IC50 [1]: > 50 µM (not active)
COc1ccccc1Nc1ccc(S(=O)(=O)N2CCCCC2)cc1[N+](=O)[O-] | > 53 µM (inactive) | > 47.1 µM (inactive) | –
CCOC(=O)c1c(NC(=O)COC(=O)Cc2nnc(O)c3ccccc23)sc(C(=O)NC)c1C | – | – | IC50 [4]: > 79 µM (inactive)
Cc1ccccc1N1CCN(C2CCCN(C(=O)c3cn4c(C)cccc4n3)C2)CC1 (stereo not given) | > 53 µM (inactive) | > 47.1 µM (inactive) | –
COc1ccc(NS(=O)(=O)c2cc(NC(=O)Cc3nnc(O)c4ccccc34)ccc2OC)cc1 | – | – | IC50 [4]: > 79 µM (inactive)
CN(C)P(=O)(NC(=O)c1cccn1C)N(C)C | > 53 µM (inactive) | > 47.1 µM (inactive) | –
C=CCO/C(O)=C1\C(C)=NC2(O)c3ccccc3C(=O)C12O (stereo not given) | > 53 µM (inactive) | > 47.1 µM (inactive) | –
COc1cc(/C=N/n2nnnc2Nc2ccccc2)cc(OC)c1OC | – | – | IC50 [4]: 12.4 µM (active)
Cc1ccc(NC(=O)COC(=O)c2cccnc2Cl)cc1S(=O)(=O)N1CCOCC1 | > 53 µM (inactive) | > 47.1 µM (inactive) | –
O=C(O)CC1S/C(=N/N=C/c2ccc(Br)cc2)N(c2ccccc2)C1=O (stereo not given) | – | – | IC50 [1]: 9.55 µM (not active)
CN1CCN(/C=N/C2=C(C#N)C(c3ccccc3)C3=C(CC(C)(C)CC3=O)O2)CC1 (stereo not given) | – | – | EC50 [5]: > 300 µM (not active); AC50 [10]: 14.1 µM (inconclusive); EC50 [6]: > 300 µM (not active)

Reference: ChEMBL document CHEMBL1201862, “PubChem BioAssay data set” (2004)
